PubChem BioAssay (NCI)
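Five compound concentrations were applied to cells in 96-well plates for 48 hours; endpoints were derived by simple linear interpolation of the resulting dose-response curve. At the TGI there is no net growth.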

Experiments:
Test in all cases: DTP human tumour cell line panel, 48 h
786-0 renal = system: 786-0 renal
OVCAR-8 ovarian = system: OVCAR-8 ovarian
U251 CNS = system: U251 CNS
COLO 205 colon = system: COLO 205 colon
HOP-92 NSCLC = system: HOP-92 NSCLC
A549 NSCLC = system: A549 NSCLC
HCT-116 colon = system: HCT-116 colon
SF-295 CNS = system: SF-295 CNS
DU-145 prostate = system: DU-145 prostate
UACC-62 melanoma = system: UACC-62 melanoma
UO-31 renal = system: UO-31 renal
SF-268 CNS = system: SF-268 CNS
IGROV1 ovarian = system: IGROV1 ovarian
SK-MEL-28 melanoma = system: SK-MEL-28 melanoma
SW-620 colon = system: SW-620 colon
SN12C renal = system: SN12C renal
EKVX NSCLC = system: EKVX NSCLC
NCI/ADR-RES ovarian = system: NCI/ADR-RES ovarian
K-562 leukemia = system: K-562 leukemia
HCC-2998 colon = system: HCC-2998 colon

Structure (SMILES)	TGI (786-0 renal)	TGI (OVCAR-8 ovarian)	TGI (U251 CNS)	TGI (COLO 205 colon)	TGI (HOP-92 NSCLC)	TGI (A549 NSCLC)	TGI (HCT-116 colon)	TGI (SF-295 CNS)	TGI (DU-145 prostate)	TGI (UACC-62 melanoma)	TGI (UO-31 renal)	TGI (SF-268 CNS)	TGI (IGROV1 ovarian)	TGI (SK-MEL-28 melanoma)	TGI (SW-620 colon)	TGI (SN12C renal)	TGI (EKVX NSCLC)	TGI (NCI/ADR-RES ovarian)	TGI (K-562 leukemia)	TGI (HCC-2998 colon)
COc1cc(C(C)=O)cc(C(=O)N(C(C)C)C(C)C)c1[Si](C)(C)C	> 100 µM	> 100 µM	> 100 µM	> 100 µM	> 100 µM	> 100 µM	> 100 µM	> 100 µM	> 100 µM	> 100 µM	> 100 µM	> 100 µM	> 100 µM	> 100 µM	> 100 µM					
CC(C)N(C(=O)C1(O)c2ccccc2C=Cc2ccccc21)C(C)C	38.8 µM	30.5 µM	30.5 µM	33.4 µM		48.3 µM	32.8 µM	33.7 µM	33.1 µM	29.5 µM	40.1 µM	36 µM	28.8 µM	31.4 µM	31.3 µM	31.4 µM	32.5 µM	35.4 µM		
Cc1cc(C)c(C(=O)c2nnc3ccccc3c2N)c(C)c1	32.2 µM		> 100 µM	30.2 µM	52.9 µM	> 100 µM	23.6 µM		84 µM	62.1 µM		> 100 µM	46.7 µM	56.7 µM	> 100 µM	38.5 µM		74.2 µM		
O=C(Oc1ccccc1)N1c2ccccc2[C@@]23O[C@]24CCC[C@H]3C#C/C=C\C#C[C@H]14	22.2 µM	24.8 µM	30.3 µM	28 µM	27 µM	25 µM	24.2 µM	30.9 µM	30.5 µM	23.6 µM	26.5 µM	43.2 µM	24.9 µM	27 µM	23.5 µM	26.6 µM	31.8 µM	33.2 µM	> 100 µM	
CC(=O)N(CCc1ccccc1)C(C#N)c1ccccc1 (stereo unspecified)	> 100 µM	> 100 µM	> 100 µM	> 100 µM		> 100 µM	> 100 µM	> 100 µM	> 100 µM	> 100 µM	> 100 µM	> 100 µM	> 100 µM		> 100 µM	> 100 µM	> 100 µM	> 100 µM	> 100 µM	> 100 µM
Cc1nn(C(=O)Cc2ccccc2)c2c1C(c1ccc(Cl)cc1)SC(N)=N2 (stereo unspecified)	> 100 µM	> 100 µM		> 100 µM		> 100 µM	> 100 µM	> 100 µM	> 100 µM	> 100 µM		> 100 µM	> 100 µM	> 100 µM	> 100 µM	> 100 µM	> 100 µM		> 100 µM	> 100 µM
COc1ccc(-n2cnn3c(=O)c4cn[nH]c4nc23)cc1	> 10 µM	> 10 µM	> 10 µM		> 10 µM	> 10 µM	> 10 µM	> 10 µM	> 10 µM		> 10 µM	> 10 µM				> 10 µM	> 10 µM		> 10 µM	> 10 µM
COc1ccc(-c2csc(Cc3nc4ccccc4c(=O)n3-c3ccc(Cl)cc3)n2)cc1	> 100 µM	> 100 µM	> 100 µM	> 100 µM		> 100 µM	57.9 µM	> 100 µM	> 100 µM	68.3 µM	> 100 µM	> 100 µM	> 100 µM	59.5 µM	> 100 µM		62.7 µM	> 100 µM	41.8 µM	> 100 µM
C#CC(C)(C)OC(=O)C(=[N+]=[N-])C(C)=O	> 10 µM	> 10 µM	> 10 µM		> 10 µM	> 10 µM	> 10 µM	> 10 µM	> 10 µM	> 10 µM	> 10 µM	> 10 µM	> 10 µM	> 10 µM	> 10 µM	> 10 µM	> 10 µM		> 10 µM	> 10 µM
CC(=O)O[C@H]1CC[C@@]2(C)C(=CC[C@@H]3[C@@H]2CC[C@]2(C)NC(=O)/C(=C\c4ccccc4)C[C@@H]32)C1	41.4 µM	45 µM	37.6 µM	38.5 µM		38.5 µM	46.9 µM	37.5 µM	48 µM	33.1 µM	33.1 µM	37.9 µM	42 µM	32.3 µM	41.9 µM	42 µM	34.8 µM	63.1 µM	> 100 µM	62 µM
COC(=O)c1ccccc1Nc1nc(-c2cccs2)nc2cc(OC)c(OC)cc12	> 100 µM	> 100 µM	> 100 µM	> 100 µM	> 100 µM	> 100 µM	> 100 µM	97.7 µM	> 100 µM	> 100 µM	> 100 µM	> 100 µM	74.7 µM	> 100 µM	> 100 µM	> 100 µM	> 100 µM	> 100 µM	> 100 µM	
CN1CCc2c(sc3ncn(C)c(=N)c23)C1	> 100 µM	> 100 µM	> 100 µM	> 100 µM	> 100 µM	> 100 µM	> 100 µM	> 100 µM	> 100 µM	> 100 µM		> 100 µM	> 100 µM	> 100 µM	> 100 µM	> 100 µM	> 100 µM	> 100 µM	> 100 µM	
COC(=O)c1c(C#N)[nH]c(-c2ccsc2)c1C(=O)OC	> 100 µM	> 100 µM	> 100 µM	> 100 µM	> 100 µM	> 100 µM	> 100 µM	> 100 µM	> 100 µM	> 100 µM	> 100 µM	> 100 µM	> 100 µM	> 100 µM	> 100 µM	> 100 µM	> 100 µM	> 100 µM	> 100 µM	
CCCCSC1=N/C(=C\c2ccco2)C(Cl)=N1	> 100 µM	> 100 µM	> 100 µM	> 100 µM		> 100 µM	> 100 µM	> 100 µM	> 100 µM	> 100 µM	> 100 µM	> 100 µM	> 100 µM	> 100 µM	> 100 µM	> 100 µM	> 100 µM	> 100 µM		> 100 µM
CC1=CCC(C)=Nc2nc3ccccc3n21	> 100 µM	> 100 µM	> 100 µM	> 100 µM	> 100 µM	> 100 µM	> 100 µM	> 100 µM	> 100 µM	> 100 µM	58.9 µM	> 100 µM	> 100 µM	> 100 µM	> 100 µM	> 100 µM	> 100 µM	> 100 µM	> 100 µM	
Cc1nc2ccc(NC(=S)Nc3ccccc3)cc2c(=O)n1-c1ccccc1	> 100 µM	> 100 µM	> 100 µM	> 100 µM			> 100 µM	> 100 µM	> 100 µM	> 100 µM	> 100 µM	> 100 µM	> 100 µM	> 100 µM	> 100 µM	> 100 µM	> 100 µM	> 100 µM	> 100 µM	> 100 µM
Oc1cc(O)cc(-c2nc3cc(F)ccc3s2)c1	47.1 µM	64.8 µM	60.5 µM	40 µM		> 100 µM	65.5 µM	36 µM	> 100 µM	40.7 µM	76.6 µM	50.8 µM	70.9 µM	77 µM	> 100 µM	76.4 µM		> 100 µM		
CCC1CCc2c(c(=O)oc3c2cc(OC)c2cccc(OC)c23)C1 (stereo unspecified)	> 100 µM	> 100 µM	> 100 µM	> 100 µM		> 100 µM	> 100 µM	> 100 µM		> 100 µM	> 100 µM	> 100 µM	> 100 µM	> 100 µM		> 100 µM	> 100 µM		> 100 µM	> 100 µM
COc1cc(O)c(C(=O)/C=C/c2ccc(O)cc2)cc1Oc1ccc(/C=C/C(=O)c2ccc(O)cc2O)cc1	16.5 µM	24.7 µM	17.2 µM	15.4 µM	22.2 µM	> 50 µM	14.7 µM	18.2 µM	23.6 µM	17.6 µM	18.2 µM	20.5 µM	15 µM	15.2 µM	38.5 µM	19.4 µM	27.7 µM	26.7 µM	22.8 µM	
CCOC(=O)C1(C/C=C/CBr)CCc2ccccc2C1=O (stereo unspecified)	31.2 µM	36.7 µM	31.2 µM	42.6 µM		30.6 µM	26.2 µM	32.9 µM	26.9 µM	28.7 µM	30.9 µM	46 µM	26.2 µM	35.6 µM	30.3 µM	34.8 µM	55 µM	63.5 µM		
CCCCCC(=O)CCCCCCCC(O)CC(=O)OCC (stereo unspecified)	> 100 µM	> 100 µM	> 100 µM		> 100 µM	> 100 µM	> 100 µM		> 100 µM		> 100 µM	> 100 µM	> 100 µM	> 100 µM	> 100 µM	> 100 µM		> 100 µM	> 100 µM	> 100 µM
COc1ccc(-c2nc(-c3cc4c(ccc5ccccc54)oc3=O)cs2)cc1	82 µM			> 100 µM	> 100 µM	> 100 µM	> 100 µM	> 100 µM	> 100 µM	> 100 µM	> 100 µM	> 100 µM	> 100 µM	> 100 µM	> 100 µM	> 100 µM	> 100 µM		> 100 µM	> 100 µM
Cc1cc(C)c2c(c1)C/C(=C\c1ccccc1C(=O)O)C2=O	> 100 µM	> 100 µM	> 100 µM		> 100 µM	> 100 µM	> 100 µM	> 100 µM	> 100 µM		> 100 µM	> 100 µM	> 100 µM	> 100 µM	> 100 µM	> 100 µM	> 100 µM		> 100 µM	> 100 µM
COC1=CC2C(c3cc4ccccc4n3S(=O)(=O)c3ccccc3)CC1CN2C(=O)OCc1ccccc1 (stereo unspecified)	> 100 µM	> 100 µM	> 100 µM	31.2 µM		> 100 µM	> 100 µM	> 100 µM	> 100 µM	> 100 µM	> 100 µM		> 100 µM		> 100 µM	> 100 µM	82.2 µM	> 100 µM	76.5 µM	> 100 µM
N#CC1=C(Nc2ccccc2)SC=C(c2ccccc2)NC1=NCc1ccccc1	> 100 µM	> 100 µM	> 100 µM	> 100 µM		> 100 µM	> 100 µM		> 100 µM	> 100 µM	> 100 µM	> 100 µM		> 100 µM	> 100 µM	> 100 µM		> 100 µM	97.6 µM	
CN(C)CCNC(=O)c1ccc2nc3c(nc2c1)C(=O)c1ccccc1-3	> 100 µM	> 100 µM	71.5 µM	> 100 µM	> 100 µM	> 100 µM	> 100 µM	> 100 µM	> 100 µM	> 100 µM	> 100 µM	> 100 µM	> 100 µM	> 100 µM	> 100 µM	> 100 µM	> 100 µM			> 100 µM
CCOC(=O)c1nc2ccc(C(F)(F)F)cc2[nH]c1=O	> 100 µM	> 100 µM	> 100 µM	> 100 µM	> 100 µM	> 100 µM	> 100 µM	> 100 µM	> 100 µM	> 100 µM	> 100 µM	> 100 µM	> 100 µM	> 100 µM	> 100 µM	> 100 µM		> 100 µM	> 100 µM	> 100 µM
